Source: article PMC6811590, “Solution structure, glycan specificity and of phenol oxidase inhibitory activity of Anopheles C-type lectins CTL4 and CTLMA2” (Scientific Reports, 2019)

Assays:
CTL4 = target: T1, CTL4 (Anopheles gambiae, UniProt Q7Q7F7); assay: SPR steady-state affinity (Biacore T200, protein immobilised on CM5); assay type: binding; details: PBS, 1 mM CaCl2, 1 mM MgCl2
T1 construct: gene 1276043; 6xHis-tagged CTL4 monomer, secreted from T.ni insect cells (baculovirus, synthetic gene)
T1 sequence (Q7Q7F7 25-177): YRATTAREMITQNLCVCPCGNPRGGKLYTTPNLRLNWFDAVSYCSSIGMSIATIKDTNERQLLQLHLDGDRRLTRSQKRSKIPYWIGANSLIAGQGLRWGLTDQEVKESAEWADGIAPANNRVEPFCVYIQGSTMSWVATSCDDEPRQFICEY
Source text: SPR steady-state affinity (Biacore T200, protein immobilised on CM5) on CTL4

CTLMA2 [1] = target: T2, CTLMA2 (Anopheles gambiae, UniProt Q7Q7F8); assay: as above; assay type: binding; details: PBS, 1 mM CaCl2, 1 mM MgCl2
T2 construct: gene 1276042; 6xHis-tagged CTLMA2 monomer, secreted from T.ni insect cells (baculovirus, synthetic gene)
T2 sequence (Q7Q7F8 18-174): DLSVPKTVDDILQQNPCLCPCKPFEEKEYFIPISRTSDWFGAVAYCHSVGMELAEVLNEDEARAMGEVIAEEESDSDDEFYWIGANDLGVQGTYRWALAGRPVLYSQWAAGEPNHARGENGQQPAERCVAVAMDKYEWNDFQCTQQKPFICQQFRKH
Source text: SPR steady-state affinity (Biacore T200, protein immobilised on CM5) on CTLMA2

CTL4/CTLMA2 [2] = target: T3, CTL4/CTLMA2 (Anopheles gambiae, UniProt Q7Q7F7+Q7Q7F8); assay: as above; assay type: binding; details: PBS, 1 mM CaCl2, 1 mM MgCl2
T3 construct: gene 1276043; disulfide-bridged heterodimer, pFastbac-Dual, C-terminal 6xHis on CTL4 (178-183), secreted from T.ni cells, signal peptides removed; 35 kDa
T3 sequence (Q7Q7F7 25-177): T1 sequence (Q7Q7F7 25-177)
T3 sequence (Q7Q7F8 18-174): T2 sequence (Q7Q7F8 18-174)
Source text: SPR steady-state affinity (Biacore T200, protein immobilised on CM5) on CTL4/CTLMA2

CTL4/CTLMA2 [3] = target: T3, CTL4/CTLMA2; assay: glycan array, anti-His fluorescence detection; assay type: binding; details: PBS, 1 mM CaCl2, 1 mM MgCl2; glycan immobilised through spacer
Source text: glycan array, anti-His fluorescence detection on CTL4/CTLMA2

[4] = tested on: An. gambiae CTL4 (AGAP005335) with C-terminal 6xHis tag, chain of the CTL4/CTLMA2 heterodimer; assay: non-reducing SDS-PAGE; purified CTL4/CTLMA2 on non-reducing and reducing SDS-PAGE; shows the disulfide-bridged species; details: other: non-reducing SDS-PAGE
CTLMA2 [5] = target: T2, CTLMA2; assay: glycan array, anti-His fluorescence detection; assay type: binding; details: PBS, 1 mM CaCl2, 1 mM MgCl2; glycan immobilised through spacer
Source text: glycan array, anti-His fluorescence detection on CTLMA2

Compound	Kd (CTLMA2 [1]) [µM]	Kd (CTL4/CTLMA2 [2]) [µM]	also measured
CC(=O)N[C@H]1C(O)O[C@H](CO)[C@@H](O)[C@@H]1O (stereo partly drawn) [113,251, GlcNAc monosaccharide]	29.7 ± 7.91	21.9 ± 2.8	Kd (CTL4): 27.9 ± 11.4 µM
CC(=O)N[C@H]1[C@H](O[C@H]2[C@@H](O)[C@@H](CO)O[C@@H](O[C@H]3[C@H](O)[C@@H](O)C(O)O[C@@H]3CO)[C@@H]2O)O[C@H](CO)[C@@H](O[C@@H]2O[C@H](CO)[C@H](O)[C@H](O)[C@H]2O)[C@@H]1O (stereo partly drawn) [383,488, LNnT]	–	17.6 ± 2.99	–
O=P(O)(O)OC[C@H]1OC(O)[C@@H](O)[C@@H](O)[C@@H]1O (stereo partly drawn) [compound 47, 6-H2PO3Manα-sp3]	–	–	CTL4/CTLMA2 (CTL4/CTLMA2 [3]): 1.32 fold
CC(=O)N[C@H]1C(O)O[C@H](CO)[C@@H](O[C@@H]2O[C@H](COS(=O)(=O)O)[C@H](O)[C@H](O)[C@H]2O)[C@@H]1O (stereo partly drawn) [compound 163]	–	–	Kd (CTL4): 0.292 ± 0.15 µM
CC(=O)N[C@H]1C(O)O[C@H](CO)[C@@H](O[C@@H]2O[C@@H](C)[C@@H](O)[C@@H](O)[C@@H]2O)[C@@H]1O[C@@H]1O[C@H](CO)[C@H](O)[C@H](OS(=O)(=O)O)[C@H]1O (stereo partly drawn) [compound 287, Sulfo-Lewis A]	0.106 ± 0.06	0.095 ± 0.02	–
CC(=O)N[C@H]1[C@@H](O[C@H]2[C@@H](O)[C@@H](CO)OC(O)[C@@H]2O[C@@H]2O[C@@H](C)[C@@H](O)[C@@H](O)[C@@H]2O)O[C@H](CO)[C@H](O)[C@@H]1O (stereo partly drawn) [compound 386, A blood group trisaccharide]	1.77 ± 0.19	5.56 ± 2.9	Kd (CTL4): 49.3 ± 12.2 µM
CC(=O)N[C@H]1[C@H]([C@H](O)[C@H](O)CO)O[C@@](O[C@H]2[C@@H](O)[C@@H](CO)O[C@@H](O[C@H]3[C@H](O[C@@H]4O[C@@H](C)[C@@H](O)[C@@H](O)[C@@H]4O)[C@@H](NC(C)=O)C(O)O[C@@H]3CO)[C@@H]2O)(C(=O)O)C[C@@H]1O (stereo partly drawn) [compound 428, Sialyl-Lewis X]	0.619 ± 0.1	3.81 ± 1	–
C[C@@H]1O[C@@H](O[C@H]2C(O)O[C@H](CO)[C@H](O)[C@@H]2O)[C@@H](O)[C@H](O)[C@@H]1O (stereo partly drawn) [compound 479, H disaccharide]	10.4 ± 3.26	26.6 ± 6.81	–
CC(=O)N[C@H]1[C@H](O[C@H]2[C@@H](O)[C@@H](CO)O[C@@H](O[C@H]3[C@H](O)[C@@H](O)C(O)O[C@@H]3CO)[C@@H]2O)O[C@H](CO)[C@@H](O)[C@@H]1O[C@@H]1O[C@H](CO)[C@H](O)[C@H](O)[C@H]1O (stereo partly drawn) [compound 536, LNT]	–	8.22 ± 1.71	–
An. gambiae CTLMA2 (AGAP005334), chain of the CTL4/CTLMA2 heterodimer	–	–	percent of the purified product that is heterodimer [4]: the purified product is overwhelmingly (>95%) heterodimer
GlcNAcβ1-4Galβ1-4GlcNAcβ-sp2 [compound 251]	–	–	CTLMA2 (CTLMA2 [5]): 1.04 fold
Neu5Acα2-3(GalNAcβ1-4)Galβ1-4Glcβ-sp2 [compound 421]	–	–	CTL4/CTLMA2 (CTL4/CTLMA2 [3]): 1.94 fold
Neu5Acα2-3Galβ1-3GlcNAcβ1-3Galβ1-4Glcβ-sp4 [compound 536]	–	–	CTL4/CTLMA2 (CTL4/CTLMA2 [3]): 2.13 fold
asialo-GM1 [18B]	–	–	Kd (CTL4): 15.4 ± 3.99 µM
